# Tests used:
# [1] = system: PAM 1032, nalB, MexAB-OprM over-expressed; assay: microbe, parasite or virus in culture; type: cell-based, P. aeruginosa
# Description: (§1) The ability of compound 21 to increase susceptibility to tigecycline was also assessed. The tigecycline potentiating activity of compound 21 was assessed by the checkerboard assay (Antimicrobial Combinations, Antibiotics in Laboratory Medicine, ed. Victor Lorian, M.D., Fourth edition, 1996, pp 333-338, which is incorporated herein by reference in its entirety) using a broth micro-dilution method performed as recommended by the CSLI (Clinical and Laboratory Standards Institute, formerly NCCLS) guidelines (National Committee for Clinical Laboratory Standards 2003. Methods for Dilution Antimicrobial Susceptibility Tests for Bacteria That Grow Aerobically—Sixth Edition; Approved Standard. NCCLS Document M7-A6, Vol 20 No. 2). In this assay, multiple dilutions of the two drugs, compound 21 and tigecycline, were tested alone and in combination, at concentrations equal to, above and below their respective minimal inhibitory concentrations (MICs). […] The stock solution was further diluted in Mueller Hinton Broth (MHB). Stock solutions were stored at −80° C.
# (§2) The checkerboard assay was performed in microtiter plates. Tigecycline was diluted in the x axis, each column containing a single concentration of tigecycline. Compound 21 was diluted in the y axis, each row containing an equal concentration of the EPI. […] The assay was performed in MHB with a final bacterial inoculum of 5×10^5 CFU/ml (from an early-log phase culture). The microtiter plates were incubated for 20 hours at 35° C. and then read using a microtiter plate reader (Molecular Devices) at 650 nm, as well as by visual observation using a microtiter plate-reading mirror.
# (§3) P. aeruginosa strain PAM 1032 was grown in Mueller-Hinton Broth (MHB) at 35° C. under constant aeration. After 20 hours, the inoculum was sub-cultured into fresh MHB and allowed to regrow at 35° C., under constant aeration, for 4 hours. The inoculum was adjusted to ca. 4×10^7 CFU/ml by correlation of absorbance at 600 nm with predetermined plate counts. The inoculum was then diluted 2-fold in 14% hog-gastric mucin (Sigma, St. Louis, Mo.) for a final inoculum concentration of 2×10^7 CFU/ml. […] At 0 and 2 hours following infection, tigecycline was administered by the subcutaneous route and compound 21 was administered by the intraperitoneal route.
# [2] = system: laboratory strains of P. aeruginosa; assay: Tigecycline susceptibility of laboratory strains of P. aeruginosa over-expressing or lacking efflux pumps; type: cell-based; conditions: compared to the wild-type strain PAM1020
# Description: as §1, §2
# Citrobacter freundii 13 = assay: Antibiotic MIC with fixed concentration of compound 21, Citrobacter freundii 13; type: cell-based; conditions: tigecycline alone
# Description: (§4) To further characterize the clinical potential of tigecycline/EPI combinations, the microbiological activity of tigecycline in combination with compound 21 was investigated using clinical isolates of P. aeruginosa and other gram-negative bacteria. In several experiments, described below, the impact of a fixed concentration of compound 21 (2.5 μg/ml) on susceptibility to tigecycline was determined.
# (§5) The impact of compound 21 on the activity of tigecycline against representative members of Enterobacteriacaea was also tested.
# [3] = system: PAM 1626, Four pumps non-functional; assay: Tigecycline potentiation checkerboard assay, PAM 1626; type: cell-based, P. aeruginosa; conditions: Pseudomonas aeruginosa, read-out: Tigecycline MIC in the presence of Compound 21
# Description: as §1, §2
# [4] = system: PAM 1723, MexAB-OprM over-expressed, ΔMexCD-OprJ ΔMexEF-OprN; assay: microbe, parasite or virus in culture; type: cell-based, P. aeruginosa; conditions: Pseudomonas aeruginosa, read-out: Tigecycline MIC in the presence of Compound 21
# Description: as §1, §2
# [5] = system: PAM 1738, MexCD-OprJ over-expressed, ΔMexAB-OprM ΔMexEF-OprN; assay: microbe, parasite or virus in culture; type: cell-based, P. aeruginosa; conditions: Pseudomonas aeruginosa, read-out: Tigecycline MIC in the presence of Compound 21
# Description: as §1, §2
# [6] = system: PAM 2466, mexR1, MexAB-OprM and MexXY-OprM over-expressed; assay: microbe, parasite or virus in culture; type: cell-based, P. aeruginosa; conditions: Pseudomonas aeruginosa, read-out: Tigecycline MIC in the presence of Compound 21
# Description: as §1, §2
# [7] = system: PAM 1323, mexZ, MexXY-OprM over-expressed, MexAB-OprM low level; assay: microbe, parasite or virus in culture; type: cell-based, P. aeruginosa; conditions: Pseudomonas aeruginosa, read-out: Tigecycline MIC in the presence of Compound 21
# Description: as §1, §2
# [8] = system: P. aeruginosa strain PAM 1032; assay: Mouse model of P. aeruginosa sepsis infection (tigecycline 50% effective dose); type: in vivo; conditions: mice, tigecycline SC at 0 and 2 hours; Reed and Meunch
# Description: Tigecycline and compound 21 were prepared in sterile 0.9% saline. Seventy Swiss-Webster mice (Harlan laboratories) with body weights ranging from 22 to 25 grams at the start of the study were used. Upon receipt, the animals were housed 5 per cage in a room with a controlled environment and were acclimated to laboratory conditions for at least 24 hours prior to the start of dosing. Animals were provided food and water ad libitum. The health status of the animals was determined during the acclimation period and unhealthy animals were not placed on study. Each animal was identified by marking their tails with indelible ink and each cage was identified by animal, group, and study number.
# as §3, with “route. […] The susceptibility of the test strain (P. aeruginosa PAM1032, […] MexAB-OprM) to tigecycline was 4 ug/ml, the susceptibility of the test strain to tigecycline in the presence of 2.5 μg/mL of compound 21 was 0.25 μg/mL.” for “route.”
# [9] = system: 110 clinical isolates of P. aeruginosa; assay: Tigecycline susceptibility of P. aeruginosa clinical isolates with fixed concentration of compound 21; type: cell-based; conditions: tigecycline alone; 110 clinical isolates
# Description: as §4
# Results from an experiment using 110 clinical isolates of P. aeruginosa are presented in FIG. 1, as the distribution of tigecycline MICs with or without the EPI potentiator.
# [10] = system: Strain S41, a clinical isolate; assay: microbe, parasite or virus in culture; type: cell-based, P. aeruginosa
# [11] = system: PAM 1753, MexEF-OprN over-expressed; assay: Tigecycline potentiation checkerboard assay, PAM 1753; type: cell-based, P. aeruginosa; conditions: Pseudomonas aeruginosa, read-out: Tigecycline MIC in the presence of Compound 21
# Description: as §1, §2
# [12] = system: Enterobacter aerogenes 19; assay: Antibiotic MIC with fixed concentration of compound 21, Enterobacter aerogenes 19; type: cell-based; conditions: tigecycline alone
# Klebsiella pneumonia 79 = assay: Antibiotic MIC with fixed concentration of compound 21, Klebsiella pneumonia 79; type: cell-based; conditions: tigecycline alone
# Description: as §4, §5
# PAM 1020, wt = assay: Tigecycline potentiation checkerboard assay, PAM 1020; type: cell-based, P. aeruginosa; conditions: Pseudomonas aeruginosa, read-out: Tigecycline MIC in the presence of Compound 21
# Description: as §1, §2
# Enterobacter cloacae 25 = assay: Antibiotic MIC with fixed concentration of compound 21, Enterobacter cloacae 25; type: cell-based; conditions: tigecycline alone
# Klebsiella pneumonia 73 = assay: Antibiotic MIC with fixed concentration of compound 21, Klebsiella pneumonia 73; type: cell-based; conditions: tigecycline alone
# Description: as §4, §5
# Klebsiella pneumonia = conditions: cited from earlier work
# [13] = In vitro stability in rat serum and tissue homogenates (LC/MS/MS); type: in vitro ADME
# Description: To test the stability of the compounds in vitro, samples were prepared and analyzed by LC/MS/MS according to the following procedure.
# Homogenization: A chunk of fresh tissue was weighed and mixed with saline at 1:1 ratio (w/v) in a 12×75 mm polypropylene round bottom tube. The mixture was homogenized with a Polytron homogenizer (on ice, 3×10 seconds with 10 second intervals at the setting of 7).
# Incubation and TCA-precipitation: An appropriate amount of a tissue homogenate was pre-warmed at 37° C. for 2 minutes in an Eppendorf tube. The compound to be tested was added to the tube to a final concentration of 2 μg/ml, mixed, and a 60 μl aliquot was immediately taken (as 0 hour sample) and mixed with 120 μl of 4% TCA (trichloroacetic acid) in an Eppendorf tube. The temperature of the tube containing the rest of the tissue sample was returned to 37° C. for incubation. Later, samples were taken as scheduled and mixed with TCA as described above. Plasma and lavage samples were directly incubated with the compounds without addition of saline and homogenization.
# LC/MS/MS sample vial preparation: TCA-precipitated sample tubes were vortexed for 30 seconds, centrifuged in a microfuge at top speed (13.2 k rpm) for 5 minutes. The supernatant was collected. The pH was neutralized to about 3.5 with ammonium acetate buffer. The sample (45 μl) was transferred to a glass LC/MS/MS vial (Kimble, 11 mm, 1.5 ml) and 5 μl of an internal standard was added to a final concentration of 500 ng/ml. LC/MS/MS analysis was performed in Chemistry Department of San Diego State University.
# LC/MS/MS protocol: Thermo-Finnigan TSQ Quantum triple sector mass spectrometer with electrospray (ESI) ionization was used to analyze the samples. The operation conditions were: Mobile phase of pH 3.00 water/formic acid: acetonitrile-methanol (45%:5%:50% by volume); Thermo-Keystone Betabasic C-18 column (2.1 mm×50 mm) operated at 0.100 mL/min.
# Many proteases responsible for degrading EPI compounds are located in […]. Lysozymes typically have an acidic pH (about 4.8-5), whereas the pH in tissue homogenates that were prepared was higher (kidney, pH 6.8; liver, pH 6.6; and lung, pH 7.5). To test the effect of tissue homogenates closer to physiological conditions, the pH was lowered to about 6 by adding acetic acid to the tissue homogenates and compound stability was tested. FIG. 2 depicts the stability of compounds 1 and 3 at different pH. […] The pH-dependent degradation of compound 3 was especially evident in kidney homogenates.
# FIG. 4 is a bar graph depicting the stability of compound 3 in the supernatant and pellet of kidney tissue homogenates.
# [14] = Tissue levels in rat six-hour after 8.4 mg/kg IV bolus; type: in vivo; conditions: rat kidney, liver and lung; 8.4 mg/kg IV bolus; in words
# Description: Tissue levels of compounds 1, 2, 3 and 4 were evaluated in kidney, liver and lung six-hour after 8.4 mg/kg IV bolus administration. FIG. 13 depicts the levels as a function of time.
# Compound 67, which is the expected metabolite of proteolytic intracellular degradation of compound 3, was detected in rat tissues after IV infusion, confirming the tissue-specific degradation of compound 3 (Tables 9A, B).
# [15] = Rat serum pharmacokinetics after IV bolus administration; type: in vivo; conditions: in words
# Description: Rat serum pharmacokinetics of compounds 1, 2, 3 and 4 was evaluated after IV bolus administration (FIG. 11). FIG. 11 depicts the serum concentrations as a function of time.
# [16] = system: P. aeruginosa, PAM1723, overexpressing the MexAB-OprM efflux pump; assay: Levofloxacin potentiation checkerboard assay (broth microdilution); type: cell-based
# Description: Stock solution was stored at −80° C.
# The checkerboard assay was performed in microtiter plates. […] EPIs were diluted in the y axis, each row containing an equal concentration of an EPI. The result of these manipulations was that each well of the microtiter plate contains a unique combination of concentrations of the two agents. The assay was performed in MHB with a final bacterial inoculum of 5×10^5 CFU/ml (from an early-log phase culture). Microtiter plates were incubated during 20 h at 35° C. and were read using a microtiterplate reader (Molecular Devices) at 650 nm as well as visual observation using a microtiter plate-reading mirror.
smiles,measurement,setting,value
CN(C)c1cc(NC(=O)CNC(C)(C)C)c(O)c2c1C[C@H]1C[C@H]3[C@H](N(C)C)C(O)=C(C(N)=O)C(=O)[C@@]3(O)C(O)=C1C2=O [Tigecycline],susceptibility of the test strain to tigecycline,"[1]; PAM1032, tigecycline alone",4 µg/mL
same,MIC,"[1]; Pseudomonas aeruginosa, read-out: Tigecycline MIC in the presence of Compound 21",0.004 µg/mL
same,increase in susceptibility to tigecycline on deleting all four efflux pumps (PAM1626),[2],4 fold
same,Tig (MIC),Citrobacter freundii 13,4 µg/mL
same,MIC,[3],0.0005 µg/mL
same,MIC,[4],0.004 µg/mL
same,MIC,[5],0.001 µg/mL
same,MIC,[6],0.008 µg/mL
same,MIC,[7],0.004 µg/mL
same,50% effective dose of tigecycline alone,[8],greater than 200 mg/kg
same,"MIC50, Tigecycline",[9],2 µg/mL
same,"MIC90, Tigecycline",[9],8 µg/mL
same,MIC,"[10]; Pseudomonas aeruginosa, read-out: Tigecycline MIC, alone",1 µg/mL
same,"Mutation Frequency on Tigecycline at 4 μg/ml, alone","[10]; strain S41, 4× MIC",8.3 × 10^−8
same,MIC,[11],0.002 µg/mL
same,Tig (MIC),[12],4 µg/mL
same,Tig (MIC),Klebsiella pneumonia 79,4 µg/mL
same,MIC,"PAM 1020, wt",0.002 µg/mL
same,Tig (MIC),Enterobacter cloacae 25,2 µg/mL
same,Tig (MIC),Klebsiella pneumonia 73,2 µg/mL
same,frequency of emergence of efflux-mediated tigecycline resistance,Klebsiella pneumonia,~4×10^−8
"NCCC[C@H](N)C(=O)N[C@@H](CCc1ccccc1)C(=O)Nc1cnc2ccccc2c1 [Compound 2, 2-(S),5-Diamino-pentanoic acid [3-phenyl-1-(S)-(quinolin-3-ylcarbamoyl)-propyl]-amide]",stability in rat serum,[13]; in words,intermediately stable
same,compound left in serum after 1.5 hr of incubation,[13]; rat serum,about half
same,compound left in serum after 4 hr,[13]; rat serum,almost all gone
same,compound left in kidney and liver after the first 40 minutes of incubation,[13]; rat tissue homogenates,Hardly any was left
same,stability in kidney and liver,"[13]; rat tissue homogenates, in words",very unstable
same,tissue levels at 6 hours after IV injection,[14],below the detectable level
same,serum levels after IV bolus administration,[15],decreased more rapidly
same,Antibiotic (levofloxacin) MIC in the presence of EPI,[16]; EPI 0 μg/ml (levofloxacin alone),2 µg/mL
same,Antibiotic (levofloxacin) MIC in the presence of EPI,[16]; EPI 1.25 μg/ml,2 µg/mL
same,Antibiotic (levofloxacin) MIC in the presence of EPI,[16]; EPI 5 μg/ml,2 µg/mL
same,Antibiotic (levofloxacin) MIC in the presence of EPI,[16]; EPI 10 μg/ml,1 µg/mL
same,Antibiotic (levofloxacin) MIC in the presence of EPI,[16]; EPI 20 μg/ml,0.125 µg/mL
same,Antibiotic (levofloxacin) MIC in the presence of EPI,[16]; EPI 40 μg/ml,0.06 µg/mL
same,Antibiotic (levofloxacin) MIC in the presence of EPI,[16]; EPI 80 μg/ml,0.03 µg/mL
same,Antibiotic (levofloxacin) MIC in the presence of EPI,[16]; EPI […],2 µg/mL
same,MPC8,[16]; EPI concentration necessary to increase susceptibility to levofloxacin eight-fold,20 µg/mL

# From patent publication US7879795B2, “Enhancement of tigecycline potency using efflux pump inhibitors” (Mpex Pharmaceuticals, Inc., priority 2004, dated 2011)
